Columns and labels:
TPα = target: T1, TPα (Homo sapiens, UniProt P21731); test: U46619-induced [Ca2+]i mobilization in HEK.TPα cells; type: cell-based; conditions: 1 μM U46619, mean ± S.E.M.
T1 construct: expressed in transfected cells
T1 sequence (P21731 1-343): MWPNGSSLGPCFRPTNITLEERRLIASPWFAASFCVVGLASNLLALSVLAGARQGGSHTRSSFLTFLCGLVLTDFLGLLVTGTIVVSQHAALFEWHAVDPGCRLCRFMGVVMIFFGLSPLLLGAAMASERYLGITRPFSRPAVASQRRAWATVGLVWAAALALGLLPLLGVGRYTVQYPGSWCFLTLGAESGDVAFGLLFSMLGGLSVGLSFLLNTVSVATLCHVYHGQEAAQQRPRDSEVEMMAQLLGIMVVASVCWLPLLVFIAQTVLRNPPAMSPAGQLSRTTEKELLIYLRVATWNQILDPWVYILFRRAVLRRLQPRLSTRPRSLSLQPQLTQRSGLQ
From the text: (§1) The appropriate functional test for the evaluation of the agonistic and/or antagonistic potency of the compounds of the invention is the determination of calcium flux. Both TPα and […] are coupled to the G-protein Gαq. Therefore, stimulation of these receptors ultimately leads to a release of intracellular calcium ([Ca^2+]i) from intracellular stores. Consequently, the determination of [Ca^2+]i flux represents an appropriate functional test for the evaluation of the agonistic/antagonistic potency of compounds of the invention. Calcium can be measured using a molecule characterized by the covalent combination of a Ca^2+ chelating group and a fluorophore group. The Ca^2+ binding properties of these indicators are formed by the presence of a tetracarboxylic acid core as found for example in EGTA (ethylene glycol bis(2-aminoethyl) tetraacetic acid). Binding of Ca^2+ produces a wavelength shift in either the excitation or emission fluorescence spectra or a change in the emission intensity. Whereas the Ca^2+ binding to EGTA is pH dependent, recent dyes are designed from an EGTA derivative, BAPTA (1, 2-Bis(2-Aminophenoxy)ethane-N, N, N′, N′-Tetraacetic Acid). Loading of these dyes inside cells commonly uses esterified forms (acetoxymethyl ester), which are able to cross the cell membranes and are subsequently hydrolyzed by esterases inside the cell.
(§2) Estimation of [Ca^2+]i flux is calculated from the fluorescence signal (F). For calibration, the maximal fluorescence (Fmax, Ca^2+-saturated form of the dye) as well as minimal fluorescence (Fmin, Ca^2+-free form of the dye) must be determined. These parameters are determined usually in situ after the experiment, for example by subsequent addition to the mixture of a cell-disrupting agent that releases all Ca^2+ such as Triton X100 and a potent Ca^2+-chelating agent such as EGTA. After subtraction of background fluorescence, [Ca^2+]i flux can be calculated for non-ratiometric indicators.
(§3) Intracellular [Ca^2+]i fluxes were measured using a fluorescence plate reader following a modified protocol of Kassack et al., Quantitative comparison of functional screening by measuring intracellular Ca^2+ with radioligand binding at recombinant human dopamine receptors. AAPS Pharmsci, 2002, 4(4); 102-111, in cell lines (e.g. HEK293 or other cell type) endogenously-expressing or over-expressing either TPα, TPβ or any other receptor or protein to be screened.
(§4) By way of example, HEK 293 cells which have been grown for 3-4 days in normal growth media (minimum essential media containing 10% FBS and 2 mmol/l L-glutamine), under normal growth conditions (37° C., in humidified 5% CO2 atmosphere) are washed and harvested in KREBs-HEPES buffer (118 mM NaCl, 4.7 mM KCl, 1.2 mM MgSO4, 1.2 mM KH2PO4, 4.2 mM NaHCO3, 11.7 mM D-glucose, 1.3 mM CaCl2, 10 mM HEPES, pH 7.4). Cells are then incubated with 3 µM Fluo-4 in KREBs-HEPES buffer containing 1% Pluoronic F-127, for 1 hr at 25° C. with agitation. Thereafter, cells are washed in KREBs-HEPES buffer containing 0.5% bovine serum albumin and resuspended at a final concentration of 3×10^5 cells/ml. Approximately, 5.4×10^4 cells per well are plated in a 96-well plate and pre-incubated with test compounds for 10 min prior to measuring the fluorescence intensity at 520 nm for 25 seconds at 1 second intervals to monitor baseline using the Fluoroskan Ascent. Agonist (e.g., 1 μM U46619) is injected into separate wells by the automatic pipettor and fluorescence intensity is monitored at 520 nm for 75 seconds at 1 second intervals. Thereafter, Triton X100 and EGTA are added sequentially where Fmax refers to maximal fluorescence intensity measured after permeabilization of the cells with 2% Triton X100 and Fmin refers to fluorescence intensity measured after addition of 1 mM EGTA.
(§5) The dye Fluo-4 has its excitation peak at 480 nm, in the visible spectra, which spare cells to be damaged by UV (340-360 nm) stimulation and reduces auto-fluorescence of cells. […]

TPβ = target: T2, TPβ (Homo sapiens, UniProt P21731); test: U46619-induced [Ca2+]i mobilization in HEK.TPβ cells; type: cell-based; conditions: for Calcium mobilization, Percentage of Control, TPβ / remaining activity at 1 µM: 1 μM U46619, HEK.TPβ, mean ± S.E.M.; for remaining activity at 1 µM: read-out: Calcium mobilization, Percentage of Control, TPβ; for inhibition at 0.5 µM: antagonist 0.5 μM, read-out: Inhibition of U46619-mediated responses in HEK.TPβ cells; for Reduction of U46619-mediated calcium mobilization in HEK.TPβ cells: at 1 & 10 μM concentrations
T2 construct: expressed in transfected cells
From the text: as §1, §2, §3, §4, §5

platelets in whole blood = test: U46619-mediated platelet aggregation in whole blood (Sysmex haematological analyzer); type: cell-based, human; conditions: antagonist 0.1 μM, 1 μM U46619 for 3 min
Experimental: From an efficacy point of view, this is an important assay and, physiologically, relevant with respect to the therapeutic target.
Initially, the Sysmex haematological analyzer was used to examine the effect of the TP antagonists at a single concentration (0.1 μM) on U46619 (1 μM)-mediated platelet aggregation in whole blood.
FIG. 3 illustrates effects of the TP antagonist compounds on U46619-mediated platelet aggregation. Blood was taken form healthy volunteer by venupuncture into syringes containing 3.8% sodium citrate, 10 μM Indomethacin, such that the ratio of anticoagulant: blood was 1:9. The blood was aliquoted and incubated for 10 min with TP20 and selected NTP compounds, as indicated, where the antagonist were used at 0.1 μM prior to stimulation with 1 μM U46619 for 3 min. The blood was fixed with formaldehyde and platelet numbers counted using the Sysmex haematological analyzer. Data is presented as the mean percentage of control or non-treated blood sample (Percentage of Control; %) and represent data from 3 independent experiments were samples were treated in duplicate.

T2 sequence (P21731 1-407 isoform P21731-2): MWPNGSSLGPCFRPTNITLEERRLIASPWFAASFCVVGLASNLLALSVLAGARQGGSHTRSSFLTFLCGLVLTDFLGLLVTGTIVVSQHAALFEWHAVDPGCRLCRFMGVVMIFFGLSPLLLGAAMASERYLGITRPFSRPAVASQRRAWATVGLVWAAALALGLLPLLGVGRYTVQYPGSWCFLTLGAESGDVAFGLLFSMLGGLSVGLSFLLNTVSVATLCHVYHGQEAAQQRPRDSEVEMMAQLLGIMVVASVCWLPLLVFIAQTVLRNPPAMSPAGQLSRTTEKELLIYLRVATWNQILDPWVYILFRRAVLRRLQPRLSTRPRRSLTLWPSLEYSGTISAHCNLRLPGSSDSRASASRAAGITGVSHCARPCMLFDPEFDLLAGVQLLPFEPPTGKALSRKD

| SMILES | Calcium mobilization, Percentage of Control, TPα (TPα; antagonist 1 μM) [%] | Calcium mobilization, Percentage of Control, TPα (TPα; antagonist 10 μM) [%] | Calcium mobilization, Percentage of Control, TPβ (TPβ; antagonist 1 μM) [%] | Calcium mobilization, Percentage of Control, TPβ (TPβ; antagonist 10 μM) [%] | other results |
| --- | --- | --- | --- | --- | --- |
| COc1ccc(-c2cccc(Oc3cc(C)c(C#N)cc3S(=O)(=O)NC(=O)NC(C)(C)C)c2)cc1 [NTP32, N-(tert-butylcarbamoyl)-5-cyano-2-((4′-methoxy-[1,1′-biphenyl]-3-yl)oxy)-4-methyl benzenesulfonamide] | 80.3 ± 4.21 | 69.3 ± 2.07 | 93.6 ± 4.06 | 46.2 ± 4.83 |  |
| COc1ccc(-c2cccc(Oc3ccc(C(=O)N4CC(O)C4)cc3S(=O)(=O)NC(=O)NC(C)(C)C)c2)cc1 [NTP23, N-(tert-butylcarbamoyl)-5-(3-hydroxyazetidine-1-carbonyl)-2-((4′-methoxy-[1,1′-biphenyl]-3-yl)oxy)benzenesulfonamide] |  |  |  |  | remaining activity at 1 µM (TPβ; antagonist 1 μM): 4.84 ± 2.75% |
| CC(C)(C)NC(=O)NS(=O)(=O)c1cc([N+](=O)[O-])ccc1Oc1cccc(-c2ccc(C(F)(F)F)cc2)c1 [XII] |  |  |  |  | inhibition at 0.5 µM (TPβ): > 50% |
| COc1ccc(-c2cccc(Oc3ccc(C(F)(F)F)cc3S(=O)(=O)NC(=O)NC(C)(C)C)c2)cc1 [NTP3, N-(tert-butylcarbamoyl)-2-((4′-methoxy-[1,1-biphenyl]-3-yl)oxy)-5-(trifluoromethyl) benzenesulfonamide] | 69.6 ± 5.92 | 41.6 ± 5.45 | 46.0 ± 5.92 | 14.8 ± 2.44 |  |
| Cc1ccc(Nc2ccc([N+](=O)[O-])cc2S(=O)(=O)NC(=O)NC(C)(C)C)cc1 [BM573, reference compound] |  |  |  |  | Reduction of U46619-mediated calcium mobilization in HEK.TPβ cells (TPβ): potently inhibited |
| COc1ccc(-c2cccc(Oc3ccc(Cl)cc3S(=O)(=O)NC(=O)NC(C)(C)C)c2)cc1 [NTP30, N-(tert-butylcarbamoyl)-5-chloro-2-((4′-methoxy-[1,1′-biphenyl]-3-yl)oxy) benzenesulfonamide] | 52.2 ± 3.90 | 23.3 ± 3.63 | 46.5 ± 5.86 | 9.31 ± 1.57 |  |
| COc1ccc(-c2cccc(Oc3ccc(S(C)(=O)=O)cc3S(=O)(=O)NC(=O)NC(C)(C)C)c2)cc1 [NTP27, N-(tert-butylcarbamoyl)-2-((4′-methoxy-[1,1′-biphenyl]-3-yl)oxy)-5-(methylsulfonyl) benzenesulfonamide] | 81.1 ± 10.2 | 68.4 ± 4.56 | 36.4 ± 3.80 | 16.3 ± 2.39 |  |
| COc1ccc(-c2cccc(Oc3ccc([N+](=O)[O-])cc3S(=O)(=O)NC(=O)NC(C)(C)C)c2)cc1 [TP20, N-(tert-butylcarbamoyl)-2-((4′-methoxy-[1,1′-biphenyl]-3-yl)oxy)-5-nitrobenzene-sulfonamide] |  |  |  |  | inhibition at 0.5 µM (TPβ): > 50%; Reduction of U46619-mediated calcium mobilization in HEK.TPβ cells (TPβ): approx. 90%; Inhibition of the U46619-mediated reduction in platelet number (platelets in whole blood): almost completely inhibited |
| COc1ccc(-c2cccc(Oc3ccc(F)cc3S(=O)(=O)NC(=O)NC(C)(C)C)c2)cc1 [NTP8, N-(tert-butylcarbamoyl)-5-fluoro-2-((4′-methoxy-[1,1′-biphenyl]-3-yl)oxy)benzene-sulfonamide] |  |  |  |  | remaining activity at 1 µM (TPβ; antagonist 1 μM): 5.94 ± 1.85% |

— US9738599B2, “Thromboxane receptor antagonists” (UNIVERSITY COLLEGE DUBLIN, NATIONAL UNIVERSITY OF IRELAND, …, priority 2012, dated 2017)
